Laboratory results published in US20220315624A1, “THIOSTREPTON ANALOGS AND METHODS OF MAKING AND USING SAME” (YALE UNIVERSITY, priority 2019, published 2022).
Values after ≈ are worked out from the molar mass of the structure shown.

Key:
[1] = Un-inoculated solubility control plate (drug precipitation); type: physicochemical; conditions: at 64 μg/mL in CAMHB
[2] = Aqueous solubility analysis in MOPS buffer; type: physicochemical; conditions: aqueous 10 mM MOPS buffer, thermodynamic from solid; after 24 hours in 10 mM aqueous MOPS buffer, pH 7.2
Description: A 2 dram vial was loaded with ˜0.5 mg of a thiostrepton derivative and suspended in ˜4 mL of aqueous 10 mM MOPS buffer (pKa 7.2). The suspension was stirred vigorously for 24 h to ensure equilibration, then filtered through a […] centrifuge filtration unit. A 3.0 mL aliquot was concentrated, and the dried residue was diluted with 0.30 mL of 1:1 1,4-dioxane/H2O (10× original concentration necessitated by detection limits). The total UV absorbance (200-300 nm) was measured in triplicate by UPLC runs with a photodiode array detector. A calibration curve for each compound was created using data points from 3 trials each of concentrations in 1:1 1,4-dioxane/H2O ranging from […]. These concentrations were plotted against their respective average absorbances. The experimental concentration of each compound was calculated by dividing the found μg/mL value by the residue concentration factor of 10 to yield the actual solubility value.

E. faecium MMX 485 VRE = experiment: MIC broth microdilution; type: cell-based; conditions: Enterococcus faecium; E. faecium MMX 485 VRE; CAMHB; read-out: MIC
Description: (§1) Twenty-four test agents were shipped to Micromyx and stored at −20° C. until assayed. The compounds were dissolved in 100% DMSO at 6.46 mg/mL prior to testing. Comparator drugs were supplied by Micromyx and were handled as described below:
(§2) The test organisms for the assay were recent clinical isolates or reference strains acquired from the American Type Culture Collection (ATCC; Manassas, Va.). Upon receipt, the isolates were streaked onto Trypticase Soy Agar II+5% sheep blood (TSAB). Colonies were harvested from the plates and a cell suspension was prepared in Trypticase Soy Broth containing cryoprotectant. Aliquots were then frozen at −80° C. Prior to the assay, the frozen seeds of all bacterial isolates to be tested were thawed and streaked for isolation onto TSAB (BD/BBL, Sparks, Md.; Lot No. 9011894), and were incubated overnight at 35° C.
(§3) The test medium for all isolates was cation-adjusted Mueller Hinton broth (CAMHB; BD/BBL; Lot No. 8190586). CAMHB (Cation Adjusted Mueller Hinton Broth) was supplemented with 3% (v/v) lysed horse blood (LHB; Hemostat, Dixon, Calif.; Lot No. 474990) for the testing of streptococci.
(§4) MIC values were determined using a broth microdilution method as recommended by CLSI. Automated liquid handlers (Multidrop 384, Labsystems, Helsinki, Finland; Biomek 2000 and Biomek F/X, Beckman Coulter, Fullerton Calif.) were used to conduct serial dilutions and make liquid transfers.
(§5) The wells of standard 96-well microdilution plates (Costar 3795, Corning Inc., Corning, N.Y.) were filled with 150 μL of the appropriate diluent in columns 2-12 on the Multidrop 384 (DMSO for the thiostrepton analogs, deionized H2O for vancomycin and ceftazidime). These plates were used to prepare the drug “mother plate” which provided the serial drug dilutions for the replicate “daughter plates”. The compounds (300 μL) were dispensed at 101× the highest concentration to be tested into the appropriate row of the “mother plate”. The Biomek 2000 was used to transfer 150 μL of each stock solution from the wells in Column 1 of the mother plate to make ten subsequent 2-fold serial dilutions. The wells of Column 12 contained no drug and served as the organism growth control wells. The daughter plates were loaded with 190 μL of test medium using the Multidrop 384.
(§6) The daughter plates were prepared on the Biomek F/X instrument which transferred […] of drug solution from each well of the mother plate to each corresponding well of each daughter plate in a single step. The wells of the daughter plates ultimately contained 190 μL of media, 2 μL of drug solution, and 10 μL of inoculum prepared as described below. The final concentration of DMSO (if used as a solvent) in the test well was 1%.
(§7) A standardized inoculum of each organism was prepared per CLSI methods. A suspension of organisms from a fresh plate was prepared in CAMHB to equal the turbidity of a 0.5 McFarland standard. The suspensions were diluted 1:20 in CAMHB, or in the case of streptococci CAMHB with LHB. The inoculum for each organism was dispensed into sterile reservoirs divided by length (Beckman Coulter), and the Biomek 2000 was used to inoculate the plates. Daughter plates were placed on the Biomek 2000 work surface reversed so that inoculation took place from low to high drug concentration. The Biomek 2000 delivered 10 μL of standardized inoculum into each well. These dilutions yielded a final cell concentration in the daughter plates of approximately 5.0×10^5 CFU/mL.
(§8) Plates were stacked 3 high, covered with a lid on the top plate, placed in plastic bags, and incubated at 35° C. for 16-20 hr for all organisms except streptococci which were incubated for 20-24 hr. Following incubation, the microplates were removed from the incubator and viewed from the bottom using a plate viewer. The MIC was read and recorded as the lowest concentration of drug that inhibited visible growth of the organism. […]

S. pyogenes ATCC 19615 = experiment: MIC broth microdilution; type: cell-based; conditions: Streptococcus pyogenes, ATCC19615, 20 h; S. pyogenes ATCC 19615; CAMHB with 3% lysed horse blood; read-out: MIC
Description: as §1, §2, §3, §4, §5, §6, §7, §8

S. aureus MMX 8088 MRSA = experiment: MIC broth microdilution; type: cell-based; conditions: Staphylococcus aureus; S. aureus MMX 8088 MRSA; CAMHB; read-out: MIC
Description: as §1, §2, §3, §4, §5, §6, §7, §8

[3] = test system: S. pneumoniae ATCC 49619 PISP; experiment: MIC broth microdilution; type: cell-based; conditions: Streptococcus pneumoniae, ATCC49619, 20 h; S. pneumoniae ATCC 49619 PISP; CAMHB with 3% lysed horse blood; read-out: MIC
Description: as §1, §2, §3, §4, §5, §6, §7, §8

[4] = test system: E. faecalis ATCC 29212 VSE; experiment: MIC broth microdilution; type: cell-based; conditions: Enterococcus faecalis, ATCC29212; E. faecalis ATCC 29212 VSE; CAMHB; read-out: MIC
Description: as §1, §2, §3, §4, §5, §6, §7, §8

E. coli ATCC 25922 = experiment: MIC broth microdilution; type: cell-based; conditions: Escherichia coli, ATCC25922; E. coli ATCC 25922; CAMHB; read-out: MIC
Description: as §1, §2, §3, §4, §5, §6, §7, §8

E. faecium MMX 708 VSE = experiment: MIC broth microdilution; type: cell-based; conditions: Enterococcus faecium, MMX708VSE; E. faecium MMX 708 VSE; CAMHB; read-out: MIC
Description: as §1, §2, §3, §4, §5, §6, §7, §8

[5] = test system: S. aureus ATCC 29213 MSSA; experiment: MIC broth microdilution; type: cell-based; conditions: Staphylococcus aureus; S. aureus ATCC 29213 MSSA; CAMHB; read-out: MIC
Description: as §1, §2, §3, §4, §5, §6, §7, §8

E. faecalis MMX 486 VRE = experiment: MIC broth microdilution; type: cell-based; conditions: Enterococcus faecalis; E. faecalis MMX 486 VRE; CAMHB; read-out: MIC
Description: as §1, §2, §3, §4, §5, §6, §7, §8

Question: Which “Precipitation in CAMHB” value [1] does the source give for C=C(NC(=O)c1csc(C2=N[C@@H]3c4csc(n4)[C@H]4NC(=O)c5csc(n5)[C@H]([C@](C)(O)[C@@H](C)O)NC(=O)C5CSC(=N5)/C(=C/C)NC(=O)[C@H]([C@@H](C)O)NC(=O)c5csc(n5)[C@]3(CC2)NC(=O)[C@H](C)NC(=O)C(=C)NC(=O)[C@H](C)NC(=O)[C@H]([C@@H](C)CC)N[C@@H]2C=Cc3c([C@H](C)O)cc(nc3[C@H]2O)C(=O)O[C@@H]4C)n1)C(=O)NC(=CNC(=O)COCCOC)C(N)=O [RJS-10] here?
Answer: Its value is “distinct precipitation”.

Question: And the solubility at 24 h [2]?
Answer: The solubility at 24 h was 19 µg/mL (≈ 10.6 µM).

Question: And the MIC (E. faecium MMX 485 VRE)?
Answer: Its MIC is 1 µg/mL (≈ 0.557 µM).

Question: And the MIC (S. pyogenes ATCC 19615)?
Answer: Its MIC is 0.015 µg/mL (≈ 0.00835 µM).

Question: And the MIC (S. aureus MMX 8088 MRSA)?
Answer: The MIC was 1 µg/mL (≈ 0.557 µM).

Question: And the MIC [3]?
Answer: The MIC was 0.015 µg/mL (≈ 0.00835 µM).

Question: What about the MIC [4] of the same compound?
Answer: Its MIC is 1 µg/mL (≈ 0.557 µM).

Question: And the MIC (E. coli ATCC 25922)?
Answer: The MIC was greater than 64 µg/mL.

Question: And the MIC (E. faecium MMX 708 VSE)?
Answer: The MIC was 1 µg/mL (≈ 0.557 µM).

Question: And the MIC [5]?
Answer: Its MIC is 1 µg/mL (≈ 0.557 µM).

Question: What about the MIC (E. faecalis MMX 486 VRE) of the same compound?
Answer: Its MIC is 1 µg/mL (≈ 0.557 µM).

Question: With C=C(NC(=O)c1csc(C2=N[C@@H]3c4csc(n4)[C@H]4NC(=O)c5csc(n5)[C@H]([C@](C)(O)[C@@H](C)O)NC(=O)C5CSC(=N5)/C(=C/C)NC(=O)[C@H]([C@@H](C)O)NC(=O)c5csc(n5)[C@]3(CC2)NC(=O)[C@H](C)NC(=O)C(=C)NC(=O)[C@H](C)NC(=O)[C@H]([C@@H](C)CC)N[C@@H]2C=Cc3c([C@H](C)O)cc(nc3[C@H]2O)C(=O)O[C@@H]4C)n1)C(=O)NC(=CNC(=O)c1cccc(C(C)=O)c1)C(N)=O [RJS-05] as the compound, how does the solubility at 24 h [2] read?
Answer: The solubility at 24 h was 1.1 µg/mL (≈ 0.602 µM).

Question: What about the MIC (E. faecium MMX 485 VRE) of the same compound?
Answer: The MIC was 0.5 µg/mL (≈ 0.274 µM).

Question: What about the MIC (S. pyogenes ATCC 19615) of the same compound?
Answer: The MIC was 0.004 µg/mL (≈ 0.00219 µM).

Question: And the MIC (S. aureus MMX 8088 MRSA)?
Answer: The MIC was 2 µg/mL (≈ 1.1 µM).

Question: And the MIC [3]?
Answer: The MIC was 0.004 µg/mL (≈ 0.00219 µM).

Question: What about the MIC [4] of the same compound?
Answer: Its MIC is 1 µg/mL (≈ 0.548 µM).

Question: What about the MIC (E. coli ATCC 25922) of the same compound?
Answer: The MIC was greater than 64 µg/mL.

Question: And the MIC (E. faecium MMX 708 VSE)?
Answer: The MIC was 1 µg/mL (≈ 0.548 µM).

Question: What about the MIC [5] of the same compound?
Answer: The MIC was 1 µg/mL (≈ 0.548 µM).

Question: And the MIC (E. faecalis MMX 486 VRE)?
Answer: The MIC was 1 µg/mL (≈ 0.548 µM).

Question: With C=C(NC(=O)c1csc(C2=N[C@@H]3c4csc(n4)[C@H]4NC(=O)c5csc(n5)[C@H]([C@](C)(O)[C@@H](C)O)NC(=O)C5CSC(=N5)/C(=C/C)NC(=O)[C@H]([C@@H](C)O)NC(=O)c5csc(n5)[C@]3(CC2)NC(=O)[C@H](C)NC(=O)C(=C)NC(=O)[C@H](C)NC(=O)[C@H]([C@@H](C)CC)N[C@@H]2C=Cc3c([C@H](C)O)cc(nc3[C@H]2O)C(=O)O[C@@H]4C)n1)C(=O)NC(=CNC(=O)c1cccc(/C=N/OC(C)(C)C(=O)O)c1)C(N)=O [RJS-13] as the compound, how does the MIC (E. faecium MMX 485 VRE) read?
Answer: Its MIC is 1 µg/mL (≈ 0.523 µM).

Question: What about the MIC (S. pyogenes ATCC 19615) of the same compound?
Answer: Its MIC is 0.015 µg/mL (≈ 0.00784 µM).

Question: What about the MIC (S. aureus MMX 8088 MRSA) of the same compound?
Answer: Its MIC is 1 µg/mL (≈ 0.523 µM).

Question: What about the MIC [3] of the same compound?
Answer: Its MIC is 0.015 µg/mL (≈ 0.00784 µM).

Question: What about the MIC [4] of the same compound?
Answer: Its MIC is 2 µg/mL (≈ 1.05 µM).

Question: And the MIC (E. coli ATCC 25922)?
Answer: Its MIC is greater than 64 µg/mL.

Question: What about the MIC (E. faecium MMX 708 VSE) of the same compound?
Answer: The MIC was 1 µg/mL (≈ 0.523 µM).

Question: And the MIC [5]?
Answer: Its MIC is 1 µg/mL (≈ 0.523 µM).

Question: What about the MIC (E. faecalis MMX 486 VRE) of the same compound?
Answer: Its MIC is 1 µg/mL (≈ 0.523 µM).

Question: What does the source list for C=C(NC(=O)c1csc(C2=N[C@@H]3c4csc(n4)[C@H]4NC(=O)c5csc(n5)[C@H]([C@](C)(O)[C@@H](C)O)NC(=O)C5CSC(=N5)/C(=C/C)NC(=O)[C@H]([C@@H](C)O)NC(=O)c5csc(n5)[C@]3(CC2)NC(=O)[C@H](C)NC(=O)C(=C)NC(=O)[C@H](C)NC(=O)[C@H]([C@@H](C)CC)N[C@@H]2C=Cc3c([C@H](C)O)cc(nc3[C@H]2O)C(=O)O[C@@H]4C)n1)C(=O)NC(=CNC(=O)COC)C(N)=O [RJS-06]?
Answer: solubility at 24 h [2]: 28 µg/mL (≈ 16 µM); MIC (E. faecium MMX 485 VRE): 0.5 µg/mL (≈ 0.285 µM); MIC (S. pyogenes ATCC 19615): 0.008 µg/mL (≈ 0.00457 µM); MIC (S. aureus MMX 8088 MRSA): 1 µg/mL (≈ 0.571 µM); MIC [3]: 0.015 µg/mL (≈ 0.00856 µM); MIC [4]: 1 µg/mL (≈ 0.571 µM); MIC (E. coli ATCC 25922): > 64 µg/mL; MIC (E. faecium MMX 708 VSE): 1 µg/mL (≈ 0.571 µM); MIC [5]: 0.5 µg/mL (≈ 0.285 µM); MIC (E. faecalis MMX 486 VRE): 1 µg/mL (≈ 0.571 µM)
